# Laboratory results published in US12357636B2 (Urovant Sciences GmbH, priority 2018, dated 2025).
# Like-named read-outs stand apart in the source and are kept apart here.
# Columns and labels:
# [1] = drug interaction of vibegron and metoprolol succinate (CYP2D6 substrate); format: in vivo, human
# [2] = tested on: men and women with overactive bladder; assay: Phase 3 study vibegron 75 mg: post-void residual urine volume (Tables 26-28); format: in vivo, human
# Source text: The risk of acute urinary retention or morbidities related to an increase in Post-Void Residual (PVR) is a concern with antimuscarinic therapy that promotes smooth muscle relaxation by inhibiting acetylcholine-induced smooth muscle contraction. If, during contraction, the bladder cannot generate enough pressure to overcome the outlet resistance in the urethra, either because of poor detrusor contractility or profound obstruction (most commonly from BPH), acute urinary retention or incomplete emptying of the bladder may result.
# The volume of urine that remains in the bladder after voiding (PVR) is an objective measurement that may serve as a proxy for impaired ability to void.
# PVR were performed via ultrasound at the visits indicated in the Schedule of Activities.
# In addition, the data on the Post Void Residual Urine Volume (PVR) in all males and males with a medical history of BPH is shown in Tables 26 and 27, respectively.
# patients with OAB = assay: Phase 2b study: cardiovascular safety, orthostatic AEs, blood pressure and heart rate changes (Table 17); format: in vivo, human; details: tolterodine 4 mg
# Source text: None led to discontinuation. The overall incidence of orthostatic symptoms was low.
# Small differences in the percent of subjects exceeding categorical heart rate and blood pressure thresholds for vibegron were similar to those in the tolterodine arm.
# men and women with OAB = assay: Phase 2b study in OAB: efficacy (voiding diary); format: in vivo, human; details: tolterodine ER 4 mg QD
# Source text: Part 2 was designed to continue to assess the safety and efficacy of concomitant dosing. […] Subjects in both Part 1 and Part 2 had the option of enrolling in a 1-year extension. Participants were required to keep a voiding diary, recording the occurrence of each strong urge, total incontinence, and urge incontinence episode. Efficacy data for Part 1 and Part 2 are summarized herein.
# The total number of urgency incontinence episodes must have exceeded the total number of stress incontinence episodes for all subjects.
# Conversely, a dose dependent effect on urge incontinence or total incontinence was not observed.
# [3] = tested on: patients with overactive bladder
# Source text: A placebo group was included in the main study, and a group that received tolterodine monotherapy was included in the main study and in the extension.
# [4] = tested on: men and women with overactive bladder; assay: Phase 3 study vibegron 75 mg vs placebo and tolterodine, 12 weeks, OAB: efficacy (Tables 21-25); format: in vivo, human; details: for Micturitions: Week 12 CFB Mean / Urgency Episodes: Week 12 CFB Mean / UUI: Week 12 CFB Mean: descriptive statistics; for UUI: Week 12 CFB Mean: daily UUI episodes
# Method: Enrollment of patients included individuals with OAB Wet (those with UUI, the involuntary loss of urine accompanied by urgency) and OAB Dry (those without UUI). A total of 1,518 patients were randomized across 215 study sites into one of three groups for a 12-week treatment period.
# The study consisted of a Screening Period (1 to 5 weeks), a single-blind Run-in Period (2 weeks), a randomized double-blind Treatment Period (12 weeks), and a Follow-up Period (4 weeks).
# Tolterodine ER 4 mg was the active control. […] Between the Baseline and Week 12 Visits, patients had study assessments at Week 4 and Week 8.
# For the analysis of the co-primary endpoints (change from baseline in average number of daily micturitions at Week 12 and change from baseline in average number of daily urge urinary incontinence episodes at Week 12, and placebo adjustment of each), a mixed model for repeated measure (MMRM) with restricted maximum likelihood estimation was used. This model corrects for dropout and accounts for the fact that measurements taken on the same patient over time tend to be correlated by using all available information on patients within the same covariate set to derive an estimate of the treatment effect for a dropout-free population. The analysis model for each efficacy endpoint includes terms for treatment, visit, OAB Type (Wet vs Dry), Sex (Female vs Male), Region (US vs Rest of World), baseline score, and interaction of visit by treatment.
# Primary inferences were drawn from treatment differences for the changes from baseline derived from the MMRM models at Week 12. As part of secondary objectives, the treatment differences for each post baseline visit were also derived using the same MMRM model.
# An unstructured covariance matrix was used to model the correlation among repeated measurements. The Kenward-Roger adjustment was used with restricted (or residual) maximum likelihood (REML) to make statistical inference. If the unstructured covariance model fails to converge with the default Newton-Raphson algorithm, the Fisher scoring algorithm or other appropriate methods can be used to provide initial values of the covariance parameters. In the rare event that none of the above methods yield convergence, a structured covariance would be used to model the correlation among repeated measurements.
# The change from baseline efficacy endpoints was analyzed using the same MMRM model described for co-primary endpoints.
# Analysis of the efficacy endpoints of proportion of patients with at least 75% reduction in the average number of daily UUI episodes at Week 12 and proportion of patients with 50% reduction in the average number of daily urgency episodes at Week 12 was analyzed using the Cochran-Mantel-Haenszel risk difference estimate. Missing Week 12 data was analyzed using multiple imputation. The estimated difference in the proportion of responders and 95% confidence interval for the difference was calculated using the Cochran-Mantel-Haenszel risk difference estimate stratified by OAB Type (Wet vs Dry) and Sex (Female vs Male), with weights proposed by Greenland and Robins.
# The same statistical methods that were used to analyze the co-primary and secondary efficacy endpoints were used for the exploratory analyses. Exploratory responder analyses were analyzed using the same Cochran-Mantel-Haenszel model as described above for secondary endpoints.
# [5] = mass balance study with [14C]vibegron; details: 2 and 4 hr
# [6] = metoprolol 100 mg, vibegron 75 mg
# [7] = Males with medical history of BPH
# [8] = all males, vibegron 75 mg or tolterodine ER 4 mg QD
# [9] = counts based on 3 consecutive post-baseline visits
# [10] = Week 12, co-primary endpoint, once-daily vibegron 75 mg or tolterodine
# [11] = Week 12, key secondary endpoint, once-daily vibegron 75 mg or tolterodine
compound,measurement,setting,value
"COCCc1ccc(OCC(O)CNC(C)C)cc1 (stereo not shown) [Metoprolol, metoprolol succinate]","AUC0-∞ ratio of GLS mean, metoprolol + vibegron/metoprolol alone",[1]; [6],1.40
same,"Cmax ratio of GLS mean, metoprolol + vibegron/metoprolol alone",[1]; [6],1.49
same,geometric mean Cmax and AUC in the presence of vibegron,"[1]; metoprolol succinate 100 mg, vibegron 75 mg QD",increased slightly
"Cc1ccc(O)c([C@H](CCN(C(C)C)C(C)C)c2ccccc2)c1 [Tolterodine ER, tolterodine]",PVR Categories at Week 12: <100 mL,[2]; [7],71.4%
same,PVR Categories at Week 12: ≥100 mL to <200 mL,[2]; [7],28.6%
same,PVR Categories at Week 12: ≥200 mL to <350 mL,[2]; [7],0%
same,PVR Categories at Week 12: ≥350 mL,[2]; [7],0%
same,PVR Mean Change from Baseline at Week 12 (SD),[2]; [7],3.7 (50.64) mL
same,PVR Mean Change from Baseline at Week 12 (SD),[2]; [8],10.2 (44.24) mL
same,PVR category <100 mL at Week 12,[2]; [8],85.2%
same,PVR category ≥100 mL to <200 mL at Week 12,[2]; [8],11.5%
same,PVR category ≥200 mL to <350 mL at Week 12,[2]; [8],3.3%
same,PVR category ≥350 mL at Week 12,[2]; [8],0
same,PVR Categories at Week 12: <100 mL,[2]; study population as a whole,86.5%
same,PVR Categories at Week 12: ≥100 mL to <200 mL,[2]; study population as a whole,5.8%
same,PVR Categories at Week 12: ≥200 mL to <350 mL,[2]; study population as a whole,0.7%
same,PVR Categories at Week 12: ≥350 mL,[2]; study population as a whole,0%
same,PVR Mean Change from Baseline at Week 12 (SD),[2]; study population as a whole,3.1 (40.93) mL
same,"DBP Change from Baseline [≥] 5 mm Hg, n/N (%)",patients with OAB; [9],30/242 (12.4) %
same,"DBP Change from Baseline [≥] 10 mm Hg, n/N (%)",patients with OAB; [9],13/242 (5.4) %
same,"DBP Change from Baseline ≥15 mm Hg, n/N (%)",patients with OAB; [9],3/242 (1.2) %
same,"HR Change from Baseline [≥] 5 mm Hg, n/N (%)",patients with OAB; [9],29/242 (12.0) %
same,"HR Change from Baseline [≥] 10 bpm, n/N (%)",patients with OAB; [9],11/242 (4.5) %
same,"HR Change from Baseline ≥15 bpm, n/N (%)",patients with OAB; [9],4/242 (1.7) %
same,"SBP Change from Baseline [≥] 5 mm Hg, n/N (%)",patients with OAB; [9],41/242 (16.9) %
same,"SBP Change from Baseline [≥] 10 mm Hg, n/N (%)",patients with OAB; [9],19/242 (7.9) %
same,"SBP Change from Baseline ≥15 mm Hg, n/N (%)",patients with OAB; [9],7/242 (2.9) %
same,"DBP Change from Baseline, Mean (95% CI) Max",patients with OAB; mean maximum from week 1 to 8,"5.19 (4.26, 6.13) mm Hg"
same,"HR Change from Baseline, Mean (95% CI) Maximum",patients with OAB; mean maximum from week 1 to 8,"5.66 (4.69, 6.63) bpm"
same,"SBP Change from Baseline, Mean (95% CI) Maximum",patients with OAB; mean maximum from week 1 to 8,"7.29 (6.01, 8.57) mm Hg"
same,"DBP Change from Baseline, Mean (95% CI) (week 1)",patients with OAB; week 1,"−0.12 (−1.10, 0.86) mm Hg"
same,"HR Change from Baseline, Mean (95% CI) (week 1)",patients with OAB; week 1,"0.68 (−0.31, 1.67) bpm"
same,"SBP Change from Baseline, Mean (95% CI) (week 1)",patients with OAB; week 1,"0.04 (−1.36, 1.43) mm Hg"
same,"Micturitions difference from placebo in LS means, Week 8",men and women with OAB,−0.54
same,"Urgency Episodes difference from placebo in LS means, Week 8",men and women with OAB,−0.94
same,"Total Incontinence Episodes difference from placebo in LS means, Week 8",men and women with OAB; OAB Wet,−0.34
same,"Urgency Incontinence Episodes difference from placebo in LS means, Week 8",men and women with OAB; OAB Wet,−0.46
same,Accidental overdose,[3]; ER 4 mg QD,6 (2.3) n (%)
same,Alanine aminotransferase increased,[3]; ER 4 mg QD,1 (0.4) n (%)
same,Arthralgia,[3]; ER 4 mg QD,3 (1.2) n (%)
same,Aspartate aminotransferase increased,[3]; ER 4 mg QD,0 (0.0) n (%)
same,Constipation,[3]; ER 4 mg QD,5 (1.9) n (%)
same,Diarrhea,[3]; ER 4 mg QD,9 (3.5) n (%)
same,Discontinuation due to AE,[3]; ER 4 mg QD,4 (1.6) n (%)
same,Discontinuation due to drug-related AE,[3]; ER 4 mg QD,0 n (%)
same,Dizziness,[3]; ER 4 mg QD,5 (1.9) n (%)
same,Drug-related AE,[3]; ER 4 mg QD,42 (16.3) n (%)
same,Dry eye,[3]; ER 4 mg QD,10 (3.9) n (%)
same,Dry mouth,[3]; ER 4 mg QD,22 (8.6) n (%)
same,Dysuria,[3]; ER 4 mg QD,3 (1.2) n (%)
same,Fatigue,[3]; ER 4 mg QD,6 (2.3) n (%)
same,Headache,[3]; ER 4 mg QD,9 (3.5) n (%)
same,Nasopharyngitis,[3]; ER 4 mg QD,4 (1.6) n (%)
same,Nausea,[3]; ER 4 mg QD,6 (2.3) n (%)
same,Osteoarthritis,[3]; ER 4 mg QD,0 (0.0) n (%)
same,Pain in extremity,[3]; ER 4 mg QD,1 (0.4) n (%)
same,Serious AE,[3]; ER 4 mg QD,3 (1.2) n (%)
same,Sinusitis,[3]; ER 4 mg QD,1 (0.4) n (%)
same,Urinary tract infection,[3]; ER 4 mg QD,12 (4.7) n (%)
same,≥1 AE,[3]; ER 4 mg QD,116 (45.1) n (%)
same,Serious AE,"[3]; ER 4 mg QD, listed as tolterodine",3 n (%)
same,frequency of injuries,"[3]; Phase 2, tolterodine arm vs vibegron",2.1%
same,Micturitions: Week 12 CFB Mean,[4]; Males with BPH,−1.25
same,Urgency Episodes: Week 12 CFB Mean,[4]; Males with BPH,−3.29
same,UUI: Week 12 CFB Mean,[4]; Males with BPH,−2.15
same,Micturitions: Week 12 CFB Mean,[4]; Males without BPH,−1.29
same,Urgency Episodes: Week 12 CFB Mean,[4]; Males without BPH,−2.32
same,UUI: Week 12 CFB Mean,[4]; Males without BPH,−2.05
same,Micturitions: Week 12 CFB Mean,[4]; Overall for Males,−1.28
same,Micturitions: Week 12 CFB Mean,[4]; Overall,−1.78
same,Urgency Episodes: Week 12 CFB Mean,[4]; Overall,−2.57
same,UUI: Week 12 CFB Mean,[4]; Overall,−1.75
same,"Micturitions, Week 12 LS Mean Change from Baseline (Placebo-Adjusted)",[4]; [10],−0.3
same,"UUI Episodes, Week 12 LS Mean Change from Baseline (Placebo-Adjusted)",[4]; [10],−0.4
same,"OAB-q Coping Score, Week 12 LS Mean Change from Baseline (Placebo-Adjusted)",[4]; [11],3.1
same,"Total Incontinence Episodes, Week 12 LS Mean Change from Baseline (Placebo-Adjusted)",[4]; [11],−0.5
same,"Urgency Episodes, Week 12 LS Mean Change from Baseline (Placebo-Adjusted)",[4]; [11],−0.4
same,"Volume Voided, Week 12 LS Mean Change from Baseline (Placebo-Adjusted)",[4]; [11],13.3 mL
O=C(O)C1OC(OC(c2ccccc2)C2CCC(Cc3ccc(NC(=O)C4CCc5nccc(=O)n54)cc3)N2)C(O)C(O)C1O (stereo not shown) [M7],share of total circulating drug-related material in human plasma,[5],12-14%
